Experimental data as given in patent US9370183B2, “Use of ALS inhibitor herbicides for control of unwanted vegetation in ALS inhibitor herbicide tolerant Brassica, such as B. napus, plants” (Bayer Intellectual Property GmbH, priority 2011, dated 2016).
Where two headings read alike, the source gives them in different places.

How the values were obtained:
[1] = system: B. napus wild type variety SR002201; assay: Greenhouse herbicide injury, visual scoring, wild type variety; type: in vivo, Brassica napus; conditions: spray at BBCH 12-13 with Mero 1 l/ha, visual scoring 14 days after application, 0%=no damage, 100%=all plants dead
Experimental: (§1) The individual components herbicide and surfactant with regard to type and application rate as stated in table 1 were added with stirring to a water application rate of 300 l/ha so that a homogeneous spray mixture was formed. The adjuvant Mero® (Bayer CropScience AG: active ingredient is 81% rapeseed oil methyl ester) was always added to the spray liquids with a use rate of one l/ha.
(§2) Seeds of B. napus were sown in a sandy loam soil and placed in a climate chamber in a greenhouse under good growth conditions (16 h light, temperature day 14° C., night: 8° C.). The plants (10 per experiment) were grown up to growth stage of BBCH 12 to BBCH 13. […] After the treatment, the plants were returned to the climate chamber.
(§3) Visual scoring was carried out using a percentage scale of 0%=no damage to 100%=all plants dead.

[2] = system: B. napus mutant FM 202; type: in vivo, Brassica napus; conditions: spray at BBCH 12-13 with Mero 1 l/ha, visual scoring 14 days after application, 0%=no damage, 100%=all plants dead
Experimental: as §1, §2, §3

[3] = biological target: T1, A. thaliana S653N-mutant ALS (Arabidopsis thaliana, UniProt P17597, E575Q/S653N); assay: biochemical; conditions: negative logarithm of the molar concentration inhibiting the enzyme activity by 50%, crude extract of E. coli expressing A. thaliana S653N ALS, 75 min, 30° C.; for IC50: read-out: ALS PI50 S653N (converted)
T1 construct: vector-encoded fusion of pET-32a(+) (Trx/His/S-tag by own knowledge of the vector); made in house; host or cells: Escherichia coli AD494
Experimental: (§4) Bacteria were grown at 37° C. in LB-medium containing 100 mg/l carbenicillin and 25 mg/l canamycin, induced with 1 mM isopropyl-β-D-thiogalactopyranoside at an OD600 of 0.6, cultivated for 16 hours at 18° C. and harvested by centrifugation. Bacterial pellets were resuspended in 100 mM sodium phosphate buffer pH 7.0 containing 0.1 mM thiamine-pyrophosphate, 1 mM MgCl2, and 1 μM FAD at a concentration of 1 gram wet weight per 25 ml of buffer and disrupted by sonification. The crude protein extract obtained after centrifugation was used for ALS activity measurements.
(§5) Assays were initiated by adding enzyme and terminated after 75 min incubation at 30° C. by the addition of 40 μl 0.5 M H2SO4.

[4] = biological target: T2, A. thaliana A205V-mutant ALS (Arabidopsis thaliana, UniProt P17597, A205V/E575Q); assay: biochemical; conditions: negative logarithm of the molar concentration inhibiting the enzyme activity by 50%, crude extract of E. coli expressing A. thaliana A205V ALS, 75 min, 30° C.; for IC50: read-out: ALS PI50 A205V (converted)
T2 construct: vector-encoded fusion of pET-32a(+) (Trx/His/S-tag by own knowledge of the vector); made in house; host or cells: Escherichia coli AD494
Experimental: as §4, §5

[5] = biological target: T3, A. thaliana wild-type ALS (Arabidopsis thaliana, UniProt P17597, E575Q); assay: biochemical; conditions: negative logarithm of the molar concentration inhibiting the enzyme activity by 50%, crude extract of E. coli expressing A. thaliana wild-type ALS, 75 min, 30° C.; for IC50: read-out: ALS PI50 WT (converted)
T3 construct: vector-encoded fusion of pET-32a(+) (Trx/His/S-tag by own knowledge of the vector); made in house; host or cells: Escherichia coli AD494
Experimental: as §4, §5

[6] = biological target: T4, A. thaliana W574L-mutant ALS (Arabidopsis thaliana, UniProt P17597, E575Q/W574L); type: biochemical; conditions: negative logarithm of the molar concentration inhibiting the enzyme activity by 50%; crude extract of E. coli expressing A. thaliana W574L ALS; 75 min, 30° C.
T4 construct: vector-encoded fusion of pET-32a(+) (Trx/His/S-tag by own knowledge of the vector); made in house; host or cells: Escherichia coli AD494
Experimental: as §4, §5

T1 sequence (P17597 56-670 E575Q/S653N): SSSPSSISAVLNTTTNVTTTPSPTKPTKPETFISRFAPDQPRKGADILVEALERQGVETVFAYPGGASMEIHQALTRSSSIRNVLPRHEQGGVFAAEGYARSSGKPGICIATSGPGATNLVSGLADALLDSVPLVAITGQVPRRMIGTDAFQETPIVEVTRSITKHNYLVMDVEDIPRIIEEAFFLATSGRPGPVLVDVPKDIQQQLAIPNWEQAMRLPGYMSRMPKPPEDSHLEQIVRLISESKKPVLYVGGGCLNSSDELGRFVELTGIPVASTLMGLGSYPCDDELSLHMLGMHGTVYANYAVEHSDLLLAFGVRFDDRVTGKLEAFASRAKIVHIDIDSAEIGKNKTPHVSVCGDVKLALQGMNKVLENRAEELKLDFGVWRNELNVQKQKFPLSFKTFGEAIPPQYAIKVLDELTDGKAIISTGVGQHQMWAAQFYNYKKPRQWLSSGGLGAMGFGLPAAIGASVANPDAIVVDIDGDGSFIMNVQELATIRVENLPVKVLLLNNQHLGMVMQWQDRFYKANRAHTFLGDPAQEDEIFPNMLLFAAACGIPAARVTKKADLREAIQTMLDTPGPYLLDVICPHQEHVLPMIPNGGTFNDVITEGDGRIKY
T2 sequence (P17597 56-670 A205V/E575Q): as the sequence (P17597 56-670 E575Q/S653N) above, with A150V, N598S counted along it
T3 sequence (P17597 56-670 E575Q): as the sequence (P17597 56-670 E575Q/S653N) above, with N598S counted along it
T4 sequence (P17597 56-670 W574L/E575Q): as the sequence (P17597 56-670 E575Q/S653N) above, with W519L, N598S counted along it

In the case of `COC(=O)c1ccccc1S(=O)(=O)NC(=O)N(C)c1nc(C)nc(OC)n1`, the “Herbicide injury on BRSNS [%] SR002201” value ([1]; 30 g a.i./ha) is reported as 95% and the “Herbicide injury on BRSNS [%] FM 202” value ([2]; 30 g a.i./ha) is reported as 3%.
With `COc1cc(OC)nc(NC(=O)NS(=O)(=O)N(C)S(C)(=O)=O)n1` [Amidosulfuron, amidosulfuron] the IC50 [3] was 1.26 nM and the IC50 [4] was 12600 nM.
With `COc1cc(OC)nc(Oc2cccc(Oc3nc(OC)cc(OC)n3)c2C(=O)O)n1` [Bispyribac-sodium, bispyribac-sodium] the IC50 [3] was 158 nM, the IC50 [5] was 15.8 nM and the IC50 [4] was 100 nM.
For `COc1nc(C)nc(NC(=O)NS(=O)(=O)c2ccccc2Cl)n1` [Chlorsulfuron, chlorsulfuron], the “Herbicide injury on BRSNS [%] SR002201” value ([1]; 9 g a.i./ha) was 97% and the “Herbicide injury on BRSNS [%] FM 202” value ([2]; 9 g a.i./ha) was 0%.
With `CCOc1ccccc1OS(=O)(=O)NC(=O)Nc1nc(OC)cc(OC)n1` [Ethoxysulfuron, ethoxysulfuron] the “Herbicide injury on BRSNS [%] SR002201” value ([1]; 60 g a.i./ha) was 98% and the “Herbicide injury on BRSNS [%] FM 202” value ([2]; 60 g a.i./ha) was 0%.
`COc1cc(OC)nc(NC(=O)NS(=O)(=O)c2ncccc2C(F)(F)F)n1` [Flazasulfuron, flazasulfuron] gave an IC50 [5] of 2.51 nM and an IC50 [4] of 15.8 nM.
With `COc1ncc(F)c2nc(S(=O)(=O)Nc3c(F)cccc3F)nn12` [Florasulam, florasulam] the “ALS PI50 S653N” value [3] was 7.6, the “ALS PI50 WT” value [5] was 7.9 and the “ALS PI50 A205V” value [4] was 6.1. The “ALS PI50 W574L” value [6] was 4.6.
Compound `COc1cc(OC)nc(NC(=O)NS(=O)(=O)c2cc(NC=O)ccc2C(=O)N(C)C)n1` [Foramsulfuron, foramsulfuron] has an IC50 [4] of 501 nM.
With `COCc1cnc(C2=NC(C)(C(C)C)C(=O)N2)c(C(=O)O)c1` (stereo not shown) [Imazamox, imazamox] the IC50 [4] was greater than 100000 nM, the “Herbicide injury on BRSNS [%] SR002201” value ([1]; 40 g a.i./ha) was 93% and the “Herbicide injury on BRSNS [%] FM 202” value ([2]; 40 g a.i./ha) was 0%.
In the case of `COC(=O)c1ccc(I)cc1S(=O)(=O)[N-]C(=O)Nc1nc(C)nc(OC)n1.[Na+]` [Iodosulfuron-methy-sodium, iodosulfuron-methyl-sodium], the “Herbicide injury on BRSNS [%] SR002201” value ([1]; 7 g a.i./ha) is reported as 95% and the “Herbicide injury on BRSNS [%] FM 202” value ([2]; 7 g a.i./ha) is reported as 0%.
For `COC(=O)c1ccc(CNS(C)(=O)=O)cc1S(=O)(=O)NC(=O)Nc1nc(OC)cc(OC)n1` [Mesosulfuron-methyl, mesosulfuron-methyl], the “Herbicide injury on BRSNS [%] SR002201” value ([1]; 15 g a.i./ha) was 90% and the “Herbicide injury on BRSNS [%] FM 202” value ([2]; 15 g a.i./ha) was 0%.
In the case of `COc1cc(OC)n2nc(S(=O)(=O)Nc3c(Cl)ccc(C)c3Cl)nc2n1` [Metosulam, metosulam], the IC50 [3] is reported as 39.8 nM, the IC50 [5] is reported as 3.16 nM and the IC50 [4] is reported as 794 nM.
With `COC(=O)c1ccccc1S(=O)(=O)NC(=O)Nc1nc(C)nc(OC)n1` [Metsulfuron-methyl, metsulfuron-methyl] the “Herbicide injury on BRSNS [%] SR002201” value ([1]; 8 g a.i./ha) was 93% and the “Herbicide injury on BRSNS [%] FM 202” value ([2]; 8 g a.i./ha) was 0%.
With `COc1cc(OC)nc(NC(=O)NS(=O)(=O)c2ncccc2C(=O)N(C)C)n1` [Nicosulfuron, nicosulfuron] the IC50 [3] was 1580 nM, the IC50 [5] was 63.1 nM and the IC50 [4] was 1000 nM.
`CCS(=O)(=O)c1cccnc1S(=O)(=O)NC(=O)Nc1nc(OC)cc(OC)n1` [Rimsulfuron, rimsulfuron] gave an IC50 [3] of 2.51 nM, an IC50 [5] of 10 nM and an IC50 [4] of 158 nM.
Work on `CCS(=O)(=O)c1nc2ccccn2c1S(=O)(=O)NC(=O)Nc1nc(OC)cc(OC)n1` [Sulfosulfuron, sulfosulfuron] yielded an IC50 [3] of 79.4 nM, an IC50 [5] of 15.8 nM and an IC50 [4] of 1260 nM.
`COC(=O)c1csc(C)c1S(=O)(=O)NC(=O)n1nc(OC)n(C)c1=O` [Thiencarbazone-methyl, thiencarbazone-methyl] was tested, and the “Herbicide injury on BRSNS [%] SR002201” value ([1]; 20 g a.i./ha) was 90% and the “Herbicide injury on BRSNS [%] FM 202” value ([2]; 20 g a.i./ha) was 0%.
With `COC(=O)c1sccc1S(=O)(=O)NC(=O)Nc1nc(C)nc(OC)n1` [Thifensulfuron-Methyl, thifensulfuron-methyl] the IC50 [3] was 158 nM, the IC50 [5] was 31.6 nM and the IC50 [4] was 631 nM.
In the case of `COC(=O)c1cccc(C)c1S(=O)(=O)NC(=O)Nc1nc(OCC(F)(F)F)nc(N(C)C)n1` [Triflusulfuron, triflusulfuron-methyl], the “Herbicide injury on BRSNS [%] SR002201” value ([1]; 20 g a.i./ha) is reported as 65% and the “Herbicide injury on BRSNS [%] FM 202” value ([2]; 20 g a.i./ha) is reported as 0%.
